Earlier results, collected in patent US20100137844A1, “Delivery devices for modulating inflammation” (Searete LLC, a limited liability corporation of the State …, priority 2008, published 2010).

Experiments:
Fyn = Fyn (Homo sapiens, UniProt P06241); details: at nanomolar concentrations
[1] = 400 mg infused over one hour, single agent
[2] = test system: proteasomal activity in cultured breast cancer cells; details: via copper binding

Fyn, sequence (P06241 whole entry, the tested form may be a part): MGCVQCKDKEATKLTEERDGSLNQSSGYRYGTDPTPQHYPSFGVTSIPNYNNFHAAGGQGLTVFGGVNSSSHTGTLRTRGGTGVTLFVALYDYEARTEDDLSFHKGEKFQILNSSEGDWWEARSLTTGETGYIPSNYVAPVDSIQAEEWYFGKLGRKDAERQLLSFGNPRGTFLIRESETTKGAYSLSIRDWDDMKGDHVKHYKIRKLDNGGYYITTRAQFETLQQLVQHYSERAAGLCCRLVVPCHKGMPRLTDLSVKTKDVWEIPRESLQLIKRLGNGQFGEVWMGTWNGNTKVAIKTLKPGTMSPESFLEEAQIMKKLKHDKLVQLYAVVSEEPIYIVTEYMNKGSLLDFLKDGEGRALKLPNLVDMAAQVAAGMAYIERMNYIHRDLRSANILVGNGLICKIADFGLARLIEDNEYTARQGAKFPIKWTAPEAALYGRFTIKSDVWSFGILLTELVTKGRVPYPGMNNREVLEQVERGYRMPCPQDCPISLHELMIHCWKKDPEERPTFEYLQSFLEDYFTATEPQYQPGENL

Cc1nc(Nc2ncc(C(=O)Nc3c(C)cccc3Cl)s2)cc(N2CCN(CCO)CC2)n1.O [dasatinib, N-(2-chloro-6-methylphenyl)-2-[[6-[4-(2-hydroxyethyl)-1-piperazinyl]-2-methyl-4-pyrimidinyl]amino]-5-thiazolecarboxamide, monohydrate]
inhibition of Fyn (Fyn): inhibits

Cl.Cl.Nc1ccccc1Oc1ccc2c(N)nsc2c1 [Example M62812, 3-amino-6-(2-aminophenoxy)-1,2-benzisothiazole dihydrochloride]
prevention of lethal septic shock (mice): prevents lethal septic shock in mice

CCN(CC)CCCC(C)Nc1ccnc2cc(Cl)ccc12.O=P(O)(O)O.O=P(O)(O)O (centres unmarked) [chloroquine phosphate, 7-chloro-4-[[4-(diethylamino)-1-methylbutyl]amino]quinoline phosphate (1:2)]
tolerability of intravenous infusion [1]: without complication

CCN(CC)C(=S)SSC(=S)N(CC)CC [disulfiram, 1-(diethylthiocarbamoyldisulfanyl)-N,N-diethyl-methanethioamide]
proteasomal activity [2]: inhibits proteasomal activity
inhibition of aldehyde dehydrogenase (aldehyde dehydrogenase): inhibits aldehyde dehydrogenase without toxicity
